# Results from ChEMBL document CHEMBL3286379, “Design and synthesis of pyrimidine molecules endowed with thiazolidin-4-one as new anticancer agents” (Eur J Med Chem, 2014).
# How the values were obtained:
# Type in all cases: functional
# [1] = system: CAKI-1; experiment: Growth inhibition of human CAKI-1 cells after 48 hrs by sulforhodamine B assay; details: CAKI-1, 48 h
# [2] = Growth inhibition of human HCT15 cells after 48 hrs by sulforhodamine B assay; details: HCT-15, 48 h
# [3] = Growth inhibition of human LOXIMVI cells after 48 hrs by sulforhodamine B assay; details: LOX IMVI
# [4] = system: Malme-3M; experiment: Growth inhibition of human MALME-3M cells after 48 hrs by sulforhodamine B assay
# [5] = system: NCI-H522; experiment: Growth inhibition of human NCI-H522 cells after 48 hrs by sulforhodamine B assay; details: NCI-H522, 48 h
# [6] = system: A549; experiment: Growth inhibition of human A549/ATCC cells after 48 hrs by sulforhodamine B assay; details: A549, 48 h
# [7] = system: KM12; experiment: Growth inhibition of human KM12 cells after 48 hrs by sulforhodamine B assay; details: KM12, 48 h
# [8] = system: HT-29; experiment: Growth inhibition of human HT-29 cells after 48 hrs by sulforhodamine B assay; details: HT-29, 48 h
# [9] = system: PC-3; experiment: Growth inhibition of human PC3 cells after 48 hrs by sulforhodamine B assay; details: PC-3, 48 h
# [10] = system: CCRF-CEM; experiment: Growth inhibition of human CCRF-CEM cells after 48 hrs by sulforhodamine B assay
# [11] = system: M14; experiment: Growth inhibition of human M14 cells after 48 hrs by sulforhodamine B assay; details: M14, 48 h
# [12] = system: IGROV-1; experiment: Growth inhibition of human IGROV1 cells after 48 hrs by sulforhodamine B assay; details: IGROV-1, 48 h
# [13] = read-out: LC50 (the source's name)
# [14] = read-out: pLC50 (the source's name) (converted)
structure (smiles),measurement,setting,value
Nc1nc(-c2ccccc2Cl)cc(-c2ccc(Cl)cc2Cl)n1,GI50,[1]; read-out: GI50,9.27 µM
same,CC50,[1]; [13],> 100 µM
same,TGI,[1]; read-out: TGI,> 100 µM
same,GI50,[1]; read-out: pGI50 (converted),9.33 µM
same,CC50,[1]; [14],> 100 µM
same,TGI,[1]; read-out: pTGI,> 100 µM
same,GI50,[2]; read-out: GI50,5.09 µM
same,CC50,[2]; [13],> 100 µM
same,TGI,[2]; read-out: TGI,> 100 µM
same,GI50,[2]; read-out: pGI50 (converted),5.13 µM
same,CC50,[2]; [14],> 100 µM
same,TGI,[2]; read-out: pTGI,> 100 µM
same,GI50,[3]; read-out: GI50,4.89 µM
same,CC50,[3]; [13],> 100 µM
same,TGI,[3]; read-out: TGI,> 100 µM
same,GI50,[3]; read-out: pGI50 (converted),4.9 µM
same,CC50,[3]; [14],> 100 µM
same,TGI,[3]; read-out: pTGI,> 100 µM
same,GI50,[4]; read-out: GI50,17.7 µM
same,CC50,[4]; [13],> 100 µM
same,TGI,[4]; read-out: TGI,> 100 µM
same,GI50,[4]; read-out: pGI50 (converted),17.8 µM
same,CC50,[4]; [14],> 100 µM
same,TGI,[4]; read-out: pTGI,> 100 µM
same,GI50,[5]; read-out: GI50,3.27 µM
same,CC50,[5]; [13],> 100 µM
same,TGI,[5]; read-out: TGI,23.3 µM
same,GI50,[5]; read-out: pGI50 (converted),3.31 µM
same,CC50,[5]; [14],> 100 µM
same,TGI,[5]; read-out: pTGI (converted),23.4 µM
same,GI50,[6]; read-out: GI50,4.81 µM
same,CC50,[6]; [13],> 100 µM
same,TGI,[6]; read-out: TGI,> 100 µM
same,GI50,[6]; read-out: pGI50 (converted),4.79 µM
same,CC50,[6]; [14],> 100 µM
same,TGI,[6]; read-out: pTGI,> 100 µM
same,GI50,[7]; read-out: GI50,4.1 µM
same,CC50,[7]; [13],> 100 µM
same,TGI,[7]; read-out: TGI,31.3 µM
same,GI50,[7]; read-out: pGI50 (converted),4.07 µM
same,CC50,[7]; [14],> 100 µM
same,TGI,[7]; read-out: pTGI (converted),30.9 µM
same,GI50,[8]; read-out: GI50,4.32 µM
same,CC50,[8]; [13],> 100 µM
same,TGI,[8]; read-out: TGI,24.3 µM
same,GI50,[8]; read-out: pGI50 (converted),4.37 µM
same,CC50,[8]; [14],> 100 µM
same,TGI,[8]; read-out: pTGI (converted),24.5 µM
same,GI50,[9]; read-out: GI50,5.43 µM
same,CC50,[9]; [13],> 100 µM
same,TGI,[9]; read-out: TGI,> 100 µM
same,GI50,[9]; read-out: pGI50 (converted),5.37 µM
same,CC50,[9]; [14],> 100 µM
same,TGI,[9]; read-out: pTGI,> 100 µM
same,GI50,[10]; read-out: GI50,4.17 µM
same,CC50,[10]; [13],> 100 µM
same,TGI,[10]; read-out: TGI,> 100 µM
same,GI50,[10]; read-out: pGI50 (converted),4.17 µM
same,CC50,[10]; [14],> 100 µM
same,TGI,[10]; read-out: pTGI,> 100 µM
same,GI50,[11]; read-out: GI50,5.95 µM
same,CC50,[11]; [13],> 100 µM
same,TGI,[11]; read-out: TGI,> 100 µM
same,GI50,[11]; read-out: pGI50 (converted),5.89 µM
same,CC50,[11]; [14],> 100 µM
same,TGI,[11]; read-out: pTGI,> 100 µM
same,GI50,[12]; read-out: GI50,12.3 µM
same,CC50,[12]; [13],> 100 µM
same,TGI,[12]; read-out: TGI,> 100 µM
same,GI50,[12]; read-out: pGI50 (converted),12.3 µM
same,CC50,[12]; [14],> 100 µM
same,TGI,[12]; read-out: pTGI,> 100 µM
